Consider 2 molecules from PMC13315578.

Series [1] deals with T1, Min Elp3 (Methanocaldococcus infernus, UniProt D5VRB9).
T1 construct: gene Metin_0452; E. coli codon-optimized gene, N-terminal 6xHis tag with TEV site (pET28a-tev), tag kept for MST; E. coli BL21(DE3) host with isc operon; anaerobically purified, [4Fe-4S] cluster chemically reconstituted
T1 sequence (D5VRB9 1-534): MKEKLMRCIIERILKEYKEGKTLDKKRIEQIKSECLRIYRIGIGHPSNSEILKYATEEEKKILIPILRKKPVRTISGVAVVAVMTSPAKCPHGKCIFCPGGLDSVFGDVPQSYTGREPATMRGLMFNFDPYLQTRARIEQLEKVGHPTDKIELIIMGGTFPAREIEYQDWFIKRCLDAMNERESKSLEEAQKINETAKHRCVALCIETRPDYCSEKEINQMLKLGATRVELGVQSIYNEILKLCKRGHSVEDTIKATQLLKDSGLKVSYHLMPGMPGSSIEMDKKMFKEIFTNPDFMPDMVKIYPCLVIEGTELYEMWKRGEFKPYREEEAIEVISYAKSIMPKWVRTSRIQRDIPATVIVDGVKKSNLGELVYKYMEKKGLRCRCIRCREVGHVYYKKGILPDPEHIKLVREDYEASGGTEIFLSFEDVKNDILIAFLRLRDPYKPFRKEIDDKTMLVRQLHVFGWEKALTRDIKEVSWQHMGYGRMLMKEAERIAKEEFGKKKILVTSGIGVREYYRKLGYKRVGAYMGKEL
The series can be described thus: microscale thermophoresis, hill fit. It is filed as binding. The settings on record: anaerobic, pH 7.5, room temperature; His-tagged protein labelled with iFluor 647-Tris NTA; no tRNA. In general terms: MST reads how a fluorescent partner responds to local heating, with and without ligand.

The target in series [2] is T2, Min Elp3 (Methanocaldococcus infernus, UniProt D5VRB9, Y304A).
T2 construct: gene Metin_0452; E. coli codon-optimized gene, N-terminal 6xHis tag with TEV site (pET28a-tev), tag kept for MST; E. coli BL21(DE3) host with isc operon; anaerobically purified, [4Fe-4S] cluster chemically reconstituted
Put plainly: microscale thermophoresis, hill fit. Conditions: anaerobic, pH 7.5, room temperature; His-tagged protein labelled with iFluor 647-Tris NTA; no tRNA. It is filed as binding.

Series [3] concerns the target T3, Min Elp3 (Methanocaldococcus infernus, UniProt D5VRB9, M156W).
T3 construct: gene Metin_0452; E. coli codon-optimized gene, N-terminal 6xHis tag with TEV site (pET28a-tev), tag kept for MST; E. coli BL21(DE3) host with isc operon; anaerobically purified, [4Fe-4S] cluster chemically reconstituted
Put plainly: microscale thermophoresis, hill fit. It is filed as binding. The settings on record: anaerobic, pH 7.5, room temperature; His-tagged protein labelled with iFluor 647-Tris NTA; no tRNA.

Series [4] concerns the target T4, Min Elp3 (Methanocaldococcus infernus, UniProt D5VRB9, K302A).
T4 construct: gene Metin_0452; E. coli codon-optimized gene, N-terminal 6xHis tag with TEV site (pET28a-tev), tag kept for MST; E. coli BL21(DE3) host with isc operon; anaerobically purified, [4Fe-4S] cluster chemically reconstituted
Put plainly: microscale thermophoresis, hill fit. It is filed as binding. The settings on record: anaerobic, pH 7.5, room temperature; His-tagged protein labelled with iFluor 647-Tris NTA; no tRNA.

The target in series [5] is T5, Min Elp3 (Methanocaldococcus infernus, UniProt D5VRB9, E207A).
T5 construct: gene Metin_0452; E. coli codon-optimized gene, N-terminal 6xHis tag with TEV site (pET28a-tev), tag kept for MST; E. coli BL21(DE3) host with isc operon; anaerobically purified, [4Fe-4S] cluster chemically reconstituted
Put plainly: microscale thermophoresis, hill fit. It is filed as binding. Conditions: anaerobic, pH 7.5, room temperature; His-tagged protein labelled with iFluor 647-Tris NTA; no tRNA.

Another series has as its target T6, Min Elp3 WT (Methanocaldococcus infernus, UniProt D5VRB9 1-534).
T6 sequence: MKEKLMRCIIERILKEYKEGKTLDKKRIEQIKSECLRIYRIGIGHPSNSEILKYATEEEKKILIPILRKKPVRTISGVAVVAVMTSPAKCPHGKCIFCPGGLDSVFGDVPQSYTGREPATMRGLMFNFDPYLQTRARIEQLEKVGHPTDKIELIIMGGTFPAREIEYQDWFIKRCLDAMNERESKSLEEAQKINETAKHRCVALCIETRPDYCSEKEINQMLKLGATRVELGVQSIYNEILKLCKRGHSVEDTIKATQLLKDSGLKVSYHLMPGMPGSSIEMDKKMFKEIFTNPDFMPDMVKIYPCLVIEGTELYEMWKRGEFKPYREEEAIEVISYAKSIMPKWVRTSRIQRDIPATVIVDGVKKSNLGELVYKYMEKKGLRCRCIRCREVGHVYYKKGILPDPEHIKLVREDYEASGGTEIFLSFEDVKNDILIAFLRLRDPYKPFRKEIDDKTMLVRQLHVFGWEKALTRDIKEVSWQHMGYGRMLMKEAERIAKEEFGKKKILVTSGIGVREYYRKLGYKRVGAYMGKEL
Put plainly: EMSA; EMSA: 250 nM tRNA, 0-20 uM Elp3, 100 mM HEPES pH 7.5, 750 mM NaCl, 25 mM DTT, 20 °C 30 min; 5% TBE gel at 4 °C. Conditions: protein: recombinant; tags: N-terminal 6xHis-TEV site (pET28a-tev); tRNA fold, annealed. A general note: Mobility shift assays separate free from complexed probe on a gel.

T2 sequence (D5VRB9 whole entry Y304A): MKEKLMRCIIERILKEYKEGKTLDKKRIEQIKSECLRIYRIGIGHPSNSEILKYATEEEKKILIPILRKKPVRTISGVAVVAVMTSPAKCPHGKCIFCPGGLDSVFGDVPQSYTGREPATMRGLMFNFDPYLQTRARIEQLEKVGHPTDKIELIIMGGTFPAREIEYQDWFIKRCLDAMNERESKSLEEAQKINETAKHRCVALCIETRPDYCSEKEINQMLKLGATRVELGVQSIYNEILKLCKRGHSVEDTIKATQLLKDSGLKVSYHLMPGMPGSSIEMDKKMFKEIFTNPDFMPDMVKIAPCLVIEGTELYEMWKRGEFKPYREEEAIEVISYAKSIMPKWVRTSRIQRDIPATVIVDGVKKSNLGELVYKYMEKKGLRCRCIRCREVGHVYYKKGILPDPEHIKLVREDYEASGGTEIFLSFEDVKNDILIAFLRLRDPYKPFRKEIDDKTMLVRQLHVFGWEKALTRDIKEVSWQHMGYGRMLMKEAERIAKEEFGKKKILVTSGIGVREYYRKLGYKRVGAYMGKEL
T5 sequence (D5VRB9 whole entry E207A): as the sequence (D5VRB9 whole entry Y304A) above, with E207A, A304Y counted along it
T4 sequence (D5VRB9 whole entry K302A): as the sequence (D5VRB9 whole entry Y304A) above, with K302A, A304Y counted along it
T3 sequence (D5VRB9 whole entry M156W): as the sequence (D5VRB9 whole entry Y304A) above, with M156W, A304Y counted along it

Consider `C[S+](CC[C@H](N)C(=O)O)C[C@H]1O[C@@H](n2cnc3c(N)ncnc32)[C@H](O)[C@@H]1O` (stereo partly drawn) [SAM], for which the KD entry was “Elp3-SAM binding was measured by triplicate microscale thermophoresis (MST) assays” at Min Elp3 [1]; “Y304A (cyan triangles) mutants bind cofactor SAM with comparable affinity to WT Elp3” on Min Elp3 [2]; “Elp3 M156W (light blue squares) binds cofactor SAM with comparable affinity to WT Elp3” on Min Elp3 [3]; “K302A (light blue squares), and Y304A (cyan triangles) mutants bind cofactor SAM” at Min Elp3 [4]; “E207A (dark blue triangles), K302A (light blue squares), and Y304A (cyan triangles) mutants bind cofactor SAM” at Min Elp3 [5].

B1: tRNA ArgUCU (structured_RNA)
RNA: GGACCCGUAGCCUAGCCUGGAUAGGGCACCGGCCUUCUAAGCCGGGGGUCGGGGGUUCAAAUCCCCCCGGGUCCGCCA
Turning to B1, the binding result in the series with Min Elp3 WT was “binds”.
